From ChEMBL document CHEMBL1131149, “Acetylcholinesterase noncovalent inhibitors based on a polyamine backbone for potential use against Alzheimer's disease” (J Med Chem, 1998)

Legend:
Acetylcholinesterase [1] = molecular target: T1, Acetylcholinesterase (Homo sapiens, UniProt P22303)
Description: Inhibition of acetylcholinesterase (AChE) of human erythrocytes

Cholinesterase = Cholinesterase (Homo sapiens, UniProt P06276)
Description: Inhibition of Butyrylcholinesterase (BChE) of human erythrocytes [-log IC50 (uM)]

Acetylcholinesterase [2] = molecular target: T1, Acetylcholinesterase; remark: listed apart in the source
Description: Inhibition constant determined against Acetylcholinesterase (AChE) receptor.

Cholinesterase, sequence (P06276 whole entry): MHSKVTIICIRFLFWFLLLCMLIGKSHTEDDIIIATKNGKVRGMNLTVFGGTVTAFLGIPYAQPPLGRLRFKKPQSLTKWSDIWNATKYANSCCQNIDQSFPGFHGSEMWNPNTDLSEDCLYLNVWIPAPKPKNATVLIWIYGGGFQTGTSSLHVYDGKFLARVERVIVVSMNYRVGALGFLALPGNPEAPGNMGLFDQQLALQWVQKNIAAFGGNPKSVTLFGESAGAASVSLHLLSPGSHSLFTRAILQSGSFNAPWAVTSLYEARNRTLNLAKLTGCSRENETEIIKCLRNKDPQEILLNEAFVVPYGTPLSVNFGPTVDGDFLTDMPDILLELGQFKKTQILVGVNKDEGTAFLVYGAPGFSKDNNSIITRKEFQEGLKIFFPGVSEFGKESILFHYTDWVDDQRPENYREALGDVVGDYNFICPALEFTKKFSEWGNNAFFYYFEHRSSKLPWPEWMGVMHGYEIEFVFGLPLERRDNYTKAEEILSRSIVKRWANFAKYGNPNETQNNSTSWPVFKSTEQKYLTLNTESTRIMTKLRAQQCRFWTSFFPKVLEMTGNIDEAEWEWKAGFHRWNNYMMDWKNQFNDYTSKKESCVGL
T1 sequence (P22303 whole entry): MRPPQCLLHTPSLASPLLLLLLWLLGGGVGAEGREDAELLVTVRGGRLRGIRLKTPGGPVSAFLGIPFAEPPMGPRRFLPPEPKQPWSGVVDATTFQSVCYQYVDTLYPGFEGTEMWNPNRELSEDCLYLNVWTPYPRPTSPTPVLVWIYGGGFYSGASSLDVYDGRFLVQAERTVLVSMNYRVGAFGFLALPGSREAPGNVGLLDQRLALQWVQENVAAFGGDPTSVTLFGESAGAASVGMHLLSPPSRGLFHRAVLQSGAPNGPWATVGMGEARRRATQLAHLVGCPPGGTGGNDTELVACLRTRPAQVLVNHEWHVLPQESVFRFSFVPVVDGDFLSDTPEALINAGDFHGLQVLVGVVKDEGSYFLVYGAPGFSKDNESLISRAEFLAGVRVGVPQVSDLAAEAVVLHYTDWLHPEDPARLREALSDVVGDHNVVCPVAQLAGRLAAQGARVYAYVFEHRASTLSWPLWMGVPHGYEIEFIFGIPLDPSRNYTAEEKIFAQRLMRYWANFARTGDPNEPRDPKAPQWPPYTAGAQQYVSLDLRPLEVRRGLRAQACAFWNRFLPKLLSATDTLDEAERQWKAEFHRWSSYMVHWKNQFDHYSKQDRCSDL

For `NCCCCCCNCCSSCCNCCCCCCN`, the IC50 (Acetylcholinesterase [1]) was 501 µM and the IC50 (Cholinesterase) was 646 µM.
In the case of `COc1ccccc1CNCCCCCC(=O)N(C)CCCCCCCCN(C)C(=O)CCCCCNCc1ccccc1OC`, the IC50 (Acetylcholinesterase [1]) is reported as 0.309 µM and the IC50 (Cholinesterase) is reported as 6.03 µM.
`COc1ccccc1CNCCCCCCNCCCCCNCCCCCCNCc1ccccc1OC` gave an IC50 (Acetylcholinesterase [1]) of 7.24 µM and an IC50 (Cholinesterase) of 8.71 µM.
With `COc1ccccc1CNCCCCCC(=O)NCCCCCCCCNC(=O)CCCCCNCc1ccccc1OC` the IC50 (Acetylcholinesterase [1]) was 1.86 µM and the IC50 (Cholinesterase) was 11.5 µM.
For `COc1ccccc1CNCCCCCCNCCCCCCNCCCCCCNCc1ccccc1OC`, the IC50 (Acetylcholinesterase [1]) was 6.46 µM and the IC50 (Cholinesterase) was 1.38 µM.
`COc1ccccc1CNCCCCCCNCCCCCCCNCCCCCCNCc1ccccc1OC` gave an IC50 (Cholinesterase) of 3.72 µM.
`COc1ccccc1CNCCCCCCNCCSSCCNCCCCCCNCc1ccccc1OC` [BENEXTRAMINE] was tested, and the IC50 (Acetylcholinesterase [1]) was 7.24 µM and the IC50 (Cholinesterase) was 6.17 µM.
In the case of `COc1ccccc1CN(C)CCCCCC(=O)N(C)CCCCCCCCN(C)C(=O)CCCCCN(C)Cc1ccccc1OC` [CAPROCTAMINE], the IC50 (Acetylcholinesterase [1]) is reported as 0.17 µM, the IC50 (Cholinesterase) is reported as 11.7 µM and the Ki (Acetylcholinesterase [2]) is reported as 0.000104 µM.
In the case of `COc1ccccc1CNCCCCCCNCCCCCCCCNCCCCCCNCc1ccccc1OC` [METHOCTRAMINE], the IC50 (Cholinesterase) is reported as 0.977 µM.
